In patent publication US7812121B2 (priority 2006, dated 2010):
“Also recorded” adds a separate entry of the source. Blank lines part the entries; values can stand above or below the molecule they belong to. Ends that are not written are not given here.

Tests used:
[1] = Incubation with U937 cell lysate, SDS-PAGE; type: in vitro ADME; conditions: 24 hour test period, compared with A2G GLP-2 mimetibody (SEQ ID NO: 5)
Protocol: The purified Pro substitution variants were incubated with U937 cell lysate in the presence of CompleteMini protease inhibitor tablets (Cat. No. 1 836 153, Roche Applied Science, Indianapolis, Ind.) for 0, 12, or 24 hours. Afterwards, GLP-2 mimetibody variants were purified using Protein A beads and resolved on a SDS-PAGE gel.

mutated human GLP-2R = biological target: T1, mutated human GLP-2R (Homo sapiens, UniProt O95838, E512D/G511A/L513V); test: cAMP expression assay; type: cell-based; conditions: for EC50: Table 5, peptides 0.01 nM to 1.0 uM, 30-minute incubation at 37° C., read-out: cAMP in Vitro EC50 values; for less activity relative to wild type GLP-2: from cAMP EC50
T1 construct: expressed in transfected cells; host or cells: HEK 293E (clonal line, transfected)
T1 sequence (O95838 1-553 G511A/E512D/L513V): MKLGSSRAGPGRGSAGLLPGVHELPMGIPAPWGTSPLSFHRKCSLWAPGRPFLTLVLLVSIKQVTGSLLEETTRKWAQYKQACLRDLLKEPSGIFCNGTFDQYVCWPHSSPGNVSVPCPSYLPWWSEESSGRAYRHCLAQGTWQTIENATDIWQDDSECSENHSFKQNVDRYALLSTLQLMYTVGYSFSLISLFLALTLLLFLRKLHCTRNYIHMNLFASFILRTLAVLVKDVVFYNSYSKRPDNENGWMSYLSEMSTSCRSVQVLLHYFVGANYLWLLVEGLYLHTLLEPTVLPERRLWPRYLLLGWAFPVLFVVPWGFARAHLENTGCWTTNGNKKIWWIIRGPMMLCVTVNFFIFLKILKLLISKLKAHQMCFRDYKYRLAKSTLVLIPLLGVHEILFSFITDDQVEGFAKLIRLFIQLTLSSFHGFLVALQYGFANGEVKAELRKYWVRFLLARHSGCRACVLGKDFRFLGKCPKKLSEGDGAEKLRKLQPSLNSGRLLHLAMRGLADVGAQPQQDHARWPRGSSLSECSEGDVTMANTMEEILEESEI
Description: To achieve this goal, a clonal cell line expressing a mutated human GLP-2R was generated by transfecting HEK 293E cells. The mutated human GLP-2R differs from the wild-type human GLP-2R (SEQ ID NO: 35) at three amino acid positions within the C-terminal intracellular region (SEQ ID NO: 36).
The CAMP expression was quantitated using the cAMP Direct Screen System (Cat. No. CSD 200, Applied Biosystems, Bedford, Mass.).
This assay was based on the cAMP Direct screen system from Applied Biosystems utilizing a cell line expressing mutated huGLP-2R in HEK 293E cells. Peptide at concentrations ranging from 0.01 nM to 1.0 uM in PBS with 0.5% BSA was added to ˜50,000 cells suspended in 96-well plates. After a 30-minute incubation at 37° C., Lysis Buffer followed by luminescence reagents (Applied Biosystems) was added according to the manufacturers' procedures (Applied Biosystems Luminescence protocol: cAMP-Screen Direct System). Luminescence was quantitated using a TopCount liquid scintillation analyzer (PerkinElmer), and data was processed using Softmax software (Molecular Devices Corporation).

[2] = SEC-SLS solution molecular weight / self-association; type: physicochemical; conditions: PBS (pH 7.5); for SEC-SLS elution / association state of peptides: 1 mg/ml
Protocol: Solution molecular weight of the peptides was measured by SEC-SLS. Briefly, peptide solutions in PBS (pH 7.5) at 0.4 to 2.0 mg/mL were fractionated over a Superdex peptide column (Amersham Pharmacia). The eluted peaks were monitored by static light scattering at 690 nm and solution molecular weight was determined at UV 280 nm using the Astra software package (Wyatt Inc.).

[3] = CD spectra secondary structure; type: physicochemical; conditions: 0.2 mg/mL peptide in PBS, 25° C.
Protocol: The secondary structures of tested peptides were determined using 0.2 mg/mL peptide solutions in PBS. Briefly, CD spectra were collected in triplicate at 1 nm intervals at 25° C. in 0.1 cm path length cell. Secondary structures were determined by fitting of the CD spectra using CD spectra software (CD Spectra Deconvolution software 2.1). All tested peptides contained peaks corresponding to the presence of alpha helices.

CD1 mice = test: Mucosal weight gain in small intestine, 10 days daily s.c. dosing; type: in vivo
Description: Afterwards, the mice were euthanized and the small intestines were removed, flushed with saline, and processed as described below.
(§1) Specifically, 4 cm sections were harvested: (1) immediately distal to the pylorus (duodenum), (2) starting 2 cm distal of the ligament of Treitz (jejunum), and (3) immediately proximal to the cecum (ileum). The remaining small intestine from ˜6 cm distal of the ligament of Treitz to 4 cm proximal to the cecum was used to prepare mucosal scrapings. From the proximal and distal ends of the remnant, an equal distance was removed until a 15 cm section remained, the remnant was cut longitudinally, rinsed, and the mucosal layer was removed using the short end of a glass microscope slide. The wet weight of the intact intestinal segments and mucosa was measured.

[4] = SEC-SLS solution molecular weight / self-association; type: physicochemical; conditions: purified mimetibody
mice = test: Pharmacodynamics, dosing regimens, 11 day study; type: in vivo
Description: as §1
The duration of the study was 11 days and tissue was processed as described in Example 4.

[5] = Pharmacokinetics in mice (TRF assay of active mimetibody); type: in vivo
Description: Blood was collected at different time points into citrate buffer containing protease inhibitors to minimize the possibility of ex vivo degradation and plasma was separated by centrifugation.
A time resolved fluorescence (TRF) assay was used to measure active mimetibody. Active mimetibody reflects the intact N-terminus of the peptide still attached to the Fc region of the mimetibody.

normal mice = test: Upper gastrointestinal transit, FITC-dextran method; type: in vivo; conditions: 30 minute test; for upper gastrointestinal transit: single injection 4 mg/kg 4 days before, 4 mg/kg
Protocol: On the day of study, upper gastrointestinal transit was measured using the FITC-dextran method. This method provides both, a measure of gastrointestinal transit and a readout of the pattern of distribution of the test meal along the gastrointestinal tract. Mice were fed a test meal of […] of FITC-dextran solution (5 mg/ml of 70,000 molecular weight dextran conjugated to fluorescein-isothiocyanate in 0.5% methylcellulose/deionized water) administered intragastrically by an 18 gauge curved feeding tube. Following oral administration of the FITC-dextran test meal, mice were returned to their home cages. It was shown that a 30 min test period was the optimum duration for detecting accelerated transit, while a 45 min test period was optimum for detecting delayed transit. Following the appropriate test period, mice were sacrificed by carbon dioxide exposure. The entire gastrointestinal tract from the lower esophageal sphincter to the terminal colon was removed. The bowel segments were opened along the mesenteric border. The tissue and luminal contents of the stomach, 10 equal segments of small intestine, the cecum, and 3 equal segments of colon were placed in individual Eppendorf tubes containing 1 ml of PBS. The tissue was vigorously mixed on a table-top vortex, and solid materials were pelleted by centrifugation. Aliquots of the cleared supernatant were read in duplicate on a 96-well fluorescence plate reader to quantify the magnitude of the fluorescent signal in each segment of bowel. These values were used to calculate the Geometric Center (GC), which is defined as the weighted average distribution of the fluorescent signal along the gastrointestinal tract: GC=Σ(% of total fluorescent signal per segment×segment number)/100. Higher values represent faster rates of transit on scale of 1 to 15. […] The mimetibody-induced shift in the distribution pattern of FITC-dextran is shown in the upper panel. […] The GC is calculated in the lower panel for statistical comparison.

Molecule: SEQ ID NO: 44: A2G GLP-2 mimetibody Pro substitution variant, V2 GALVAVSP (HGDGSFSDEMNTILDNLAARDFINWLIQTKITDGSGGGSGALVAVSPESKYGPPCPPCP; Mimetibody)
degradation / resistance to proteolysis [1]: less degradation

stimulation of cAMP expression (mutated human GLP-2R; clonal HEK 293E line expressing mutated human GLP-2R): stimulated cAMP expression
association state ([2]; 0.4 mg/mL): monomer
SEC-SLS elution / association state of peptides [2]: overlapping dimer and monomer peaks
Helix [3]: 19.6%
Random coil [3]: 37.9%
Molecule: CC[C@H](C)[C@H](NC(=O)[C@H](Cc1ccccc1)NC(=O)[C@H](CC(=O)O)NC(=O)[C@H](CCCNC(=N)N)NC(=O)[C@H](C)NC(=O)[C@H](C)NC(=O)[C@H](CC(C)C)NC(=O)[C@H](CC(N)=O)NC(=O)[C@H](CC(=O)O)NC(=O)[C@H](CC(C)C)NC(=O)[C@@H](NC(=O)[C@@H](NC(=O)[C@H](CC(N)=O)NC(=O)[C@H](CCSC)NC(=O)[C@H](CCC(=O)O)NC(=O)[C@H](CC(=O)O)NC(=O)[C@H](CO)NC(=O)[C@H](Cc1ccccc1)NC(=O)[C@H](CO)NC(=O)CNC(=O)[C@H](CC(=O)O)NC(=O)[C@H](C)NC(=O)[C@@H](N)Cc1c[nH]cn1)[C@@H](C)O)[C@@H](C)CC)C(=O)N[C@@H](CC(N)=O)C(=O)N[C@@H](Cc1c[nH]c2ccccc12)C(=O)N[C@@H](CC(C)C)C(=O)N[C@H](C(=O)N[C@@H](CCC(N)=O)C(=O)N[C@H](C(=O)N[C@@H](CCCCN)C(=O)N[C@H](C(=O)N[C@H](C(=O)N[C@@H](CC(=O)O)C(=O)O)[C@@H](C)O)[C@@H](C)CC)[C@@H](C)O)[C@@H](C)CC [SEQ ID NO: 1, GLP-2, reference compound]

EC50 (mutated human GLP-2R): 3.5 nM
less activity relative to wild type GLP-2 (mutated human GLP-2R): 2 ×
SEC-SLS elution / association state of peptides [2]: mainly monomeric peptide
Random coil [3]: 41.4%
Helix ([3]; listed as GLP-2 (A2G, N16G, L17Q)): 17.0%
Helix ([3]; listed as GLP-2(A2G, N16G, L17Q)): ~17%
Molecule: HGDGSFSDEMNTILDGQAARDFINWLIQTKITD [SEQ ID NO: 55, GLP-2(A2G, N16G, L17Q)]

Molecule: SEQ ID NO: 5: A2G GLP-2 mimetibody, IgG4 Hg-CH2-CH3 with S228P and P234A/L235A
increase in mucosal wet weight vs control mimetibody (CD1 mice; 0.8 mg/kg (0.26 nmole), p<0.0001): statistically significant
increase in mucosal wet weight vs control mimetibody (CD1 mice; 8 mg/kg (2.6 nmole), p<0.0004): statistically significant
mucosal wet weight (mucosal scrapings) (CD1 mice; female CD1 mice, daily s.c. for 10 days, dose response): dose dependant increase; also recorded: dose-dependent increase
effective in vivo dose lower than A2G GLP-2 peptide (CD1 mice; on a molar basis): 50 fold
SEC-SLS association state of mimetibodies [4]: dimer
mucosal weight difference to control mimetibody (mice; 4 mg/kg every day or every other day, 11 days): more pronounced
mucosal weight compared to control mimetibody (mice; 4 mg/kg once per week, 11 days): significantly increased mucosal weight
duodenum and jejunum section wet weight over control mimetibody (mice; 4 mg/kg, all regimens except the single dose): significant increase in weight
calculated half-life ([5]; CD1 mice, 3 mg/kg intravenously or subcutaneously, TRF active mimetibody): 26.5 h
half-life higher than that of the GLP-2 peptide ([5]; mimetibody in mice vs GLP-2 peptide in humans): more than 200 fold
upper gastrointestinal transit (normal mice; listed as A2G GLP-2 mimetibody): significant acceleration of intestinal transit
upper gastrointestinal transit (normal mice; listed as GLP-2 mimetibody): acceleration of upper gastrointestinal transit
Geometric Center (GC) (normal mice; single injection 4 days before, scale of 1 to 15, normal mice GC=6): 7.5

EC50 (mutated human GLP-2R): 5.2 nM
less activity relative to wild type GLP-2 (mutated human GLP-2R): 3 ×
SEC-SLS elution / association state of peptides [2]: mainly monomeric peptide
Random coil [3]: 41.8%
Helix ([3]; listed as GLP-2 (A2G, L17Q)): 16.9%
Helix ([3]; listed as GLP-2(A2G, L17Q)): ~17%
Molecule: HGDGSFSDEMNTILDNQAARDFINWLIQTKITD [SEQ ID NO: 54, GLP-2(A2G, L17Q)]

Molecule: GLP-1 [SEQ ID NO: 79, reference compound]
SEC-SLS elution / association state of peptides [2]: single peak with molecular weight within the expected monomer size
Helix [3]: 16.8%
Random coil [3]: 41.9%

Molecule: SEQ ID NO: 43: A2G GLP-2 mimetibody Pro substitution variant, V2 GALVAVPS (HGDGSFSDEMNTILDNLAARDFINWLIQTKITDGSGGGSGALVAVPSESKYGPPCPPCP; cysteine pairing not given here; also: part of GLP-2 mimetibody)
degradation / resistance to proteolysis [1]: less degradation

B1: SEQ ID NO: 4: A2S GLP-2 mimetibody, IgG4 Hg-CH2-CH3 with S228P and P234A/L235A (protein)
chain: HSDGSFSDEMNTILDNLAARDFINWLIQTKITDGSGGGSGTLVTVSSESKYGPPCPPCPAPEAAGGPSVFLFPPKPDTLMISRTPEVTCVVVDVSQEDPEVQFNWYVDGVEVHNAKTKPREEQFNSTYRVVSVLTVLHQDWLNGKEYKCKVSNKGLPSSIEKTISKAKGQPREPQVYTLPPSQEEMTKNQVSLTCLVKGFYPSDIAVEWESNGQPENNYKTTPPVLDSDGSFFLYSRLTVDKSRWQEGNVFSCSVMHEALHNHYTQKSLSLSLGK
modifications: Mimetibody
SEC-SLS association state of mimetibodies [4]: dimer
